Activity data for one compound are collected here from ChEMBL document CHEMBL3045322, “Synthesis and herbicidal activity of 2-acylimino-3-phenyl-1,3-thiazolines—A new family of bleaching herbicides—” (J Pestic Sci, 2006).

The subject of series [1] is Abutilon theophrasti. Nature of the series: Herbicidal activity against Abutilon theophrasti (velvetleaf) in plastic pot assessed as killing at 500 g/ha under greenhouse for 20 days by preemergence herbicidal activity tests. The class given is functional.
In series [2] the test system is Sorghum halepense. Kind of series: Herbicidal activity against Sorghum halepense (Johnson grass) in field soil at 125 g/ha measured after 3 days by preemergence herbicidal activity tests. The class given is functional.
The test system of series [3] is Sida spinosa. Kind of series: Herbicidal activity against Sida spinosa in field soil at 125 g/ha measured after 3 days by preemergence herbicidal activity tests. The class given is functional.
For series [4], the system named is Ipomoea nil. Kind of series: Herbicidal activity against Ipomoea nil (Japanese morning glory) in field soil at 62.5 g/ha measured after 3 days by pre-emergence herbicidal activity tests. The class given is functional.
The test system of series [5] is Amaranthus viridis. Nature of the series: Herbicidal activity against Amaranthus viridis in field soil at 125 g/ha measured after 3 days by pre-emergence herbicidal activity tests. The class given is functional.
The subject of series [6] is Echinochloa crus-galli. Nature of the series: Herbicidal activity against Echinochloa crus-galli (barnyard grass) in field soil at 62.5 g/ha measured after 3 days by preemergence herbicidal activity tests. The class given is functional.
For series [7], the system named is Abutilon theophrasti. Nature of the series: Herbicidal activity against Abutilon theophrasti (velvetleaf) in field soil at 125 g/ha measured after 3 days by preemergence herbicidal activity tests. The class given is functional.
Series [8] has as its system Gossypium hirsutum. Nature of the series: Phytotoxicity against Gossypium hirsutum (cotton) at 125 g/ha by selectivity assay. Conditions: in vivo. The class given is organism-based.
Series [9] relates to Echinochloa crus-galli. Nature of the series: Herbicidal activity against Echinochloa crus-galli (barnyard grass) in field soil at 125 g/ha measured after 3 days by preemergence herbicidal activity tests. The class given is functional.
The test system of series [10] is Ipomoea nil. Kind of series: Herbicidal activity against Ipomoea nil (Japanese morning glory) in plastic pot assessed as killing at 500 g/ha under greenhouse for 20 days by pre-emergence herbicidal activity tests. The class given is functional.
Series [11] deals with Echinochloa frumentacea. Nature of the series: Herbicidal activity against Echinochloa frumentacea (Japanese millet) in plastic pot assessed as killing at 500 g/ha under greenhouse for 20 days by preemergence herbicidal activity tests. The class given is functional.
The subject of series [12] is Eleusine indica. Kind of series: Herbicidal activity against Eleusine indica in field soil at 125 g/ha measured after 3 days by preemergence herbicidal activity tests. The class given is functional.
In series [13] the test system is Amaranthus viridis. Nature of the series: Herbicidal activity against Amaranthus viridis in field soil at 62.5 g/ha measured after 3 days by pre-emergence herbicidal activity tests. The class given is functional.
The test system of series [14] is Ipomoea nil. Kind of series: Herbicidal activity against Ipomoea nil (Japanese morning glory) in field soil at 125 g/ha measured after 3 days by pre-emergence herbicidal activity tests. The class given is functional.
Series [15] relates to Sorghum halepense. Nature of the series: Herbicidal activity against Sorghum halepense (Johnson grass) in field soil at 62.5 g/ha measured after 3 days by preemergence herbicidal activity tests. The class given is functional.
The test system of series [16] is Eleusine indica. Nature of the series: Herbicidal activity against Eleusine indica in field soil at 62.5 g/ha measured after 3 days by preemergence herbicidal activity tests. The class given is functional.
Series [17] has as its system Portulaca oleracea. Nature of the series: Herbicidal activity against Portulaca oleracea in field soil at 125 g/ha measured after 3 days by preemergence herbicidal activity tests. The class given is functional.
In series [18] the test system is Gossypium hirsutum. Kind of series: Phytotoxicity against Gossypium hirsutum (cotton) at 62.5 g/ha by selectivity assay. The class given is organism-based. As to conditions: in vivo.
The test system of series [19] is Portulaca oleracea. Nature of the series: Herbicidal activity against Portulaca oleracea in field soil at 62.5 g/ha measured after 3 days by preemergence herbicidal activity tests. The class given is functional.
Series [20] concerns Sida spinosa. Nature of the series: Herbicidal activity against Sida spinosa in field soil at 62.5 g/ha measured after 3 days by preemergence herbicidal activity tests. The class given is functional.
For series [21], the system named is Abutilon theophrasti. Kind of series: Herbicidal activity against Abutilon theophrasti (velvetleaf) in field soil at 62.5 g/ha measured after 3 days by preemergence herbicidal activity tests. The class given is functional.

Take `Cc1cn(-c2cccc(C(F)(F)F)c2)/c(=N/C(=O)C(F)F)s1`: the Activity in [1] stood at 100%; in series [2], 90%; in series [3], 100%; in series [4], 100%; in series [5], 100%; in series [6] it was 90%. In addition, the Activity was determined as 100% in [7]; 0% in series [8]; 100% in series [9]; 100% in series [10]; 100% in series [11]; 90% in [12]. Besides, the Activity in series [13] turned out to be 100%; in series [14], 100%; in [15], 90%; in series [16], 90%; in [17], 100%; in series [18] it was 0%. The Activity in series [19], in series [20] and in series [21] was 100% each time.
